In US20010034322A1, “Taxol-like protein (TALP) and process for preparing the same” (priority 1996, published 2001):

Tests used:
Format in all cases: biochemical
tubulin [1] = experiment: effect of Ca2+ on microtubules assembled by GTP, taxol or TALP; details: 4 mM CaCl2
Experimental: To investigate effect of Ca^2+ on tubulin polymerization, tubulin was added to 0.1M MES buffer(pH 6.8) free of EGTA, and GTP, taxol or TALP was added, and polymerization of microtubules were carried out at 37° C. for 15 minutes. Then, 4 mM CaCl2 was added to the reaction mixture, and depolymerization of microtubules assembled was measured, with the addition of GTP, taxol or TALP(see: FIG. 5).

tubulin [2] = experiment: effect of cold temperature (4° C.) on microtubules assembled by GTP, taxol or TALP; details: chilled to 4° C.
Experimental: To investigate effect of cold temperature on tubulin polymerization, tubulin was added to 0.1M MES buffer(pH 6.8). Then GTP, taxol or TALP was added to the reaction mixture, and polymerization of microtubules were carried out at 37° C. for 15 minutes. Then, the reaction solution was chilled to a temperature of 4° C., and depolymerization of microtubules assembled was measured, with the addition of GTP, taxol or TALP(see: FIG. 6).

[3] = tested on: tubulin isolated from bovine brain; experiment: coprecipitation of tubulin and TALP (centrifugation, SDS-PAGE of supernatants and pellets); details: tubulin 0.4 mg/ml, 37° C., 30 minutes
Experimental: To investigate whether TALP promotes microtubule assembly in the same manner as taxol, tubulin isolated from bovine brain was added to 0.1M MES buffer(pH 6.8) to a concentration of 0.4 mg/ml. Then, 2 mM GTP, 10 μM taxol or 4 μM TALP was added to the reaction mixture, and polymerization of microtubules were carried out at 37° C. for 30 minutes. The reaction mixtures were centrifuged for 20 minutes, and the supernatants and the pellets thus obtained were analyzed by 12% SDS-PAGE(see: FIG. 7(A)).
Also, tubulin polymerization was investigated with the variation of TALP concentration. […] In FIGS. 7(A) and 7(B), S and P designate supernatant and pellet, respectively.

tubulin [4] = experiment: electron microscopic analysis of microtubules; details: tubulin 1 mg/ml, 37° C., 30 minutes
Experimental: When tubulin polymerization was monitored by measuring the absorbance as in Example 1, increase in the absorbance may occur not only by microtubule assembly but also by the aggregation of tubulins. Thus, in order to confirm that the turbidity change is caused by microtubule assembly, the morphology of the polymers was examined with electron microscopy. Tubulin was added to 0.1M MES buffer to a concentration of 1 mg/ml, and GTP, taxol or TALP was added to a final reaction volume of 250 μl. The reaction mixture was incubated at 37° C. for 30 minutes, and the absorbance change at 350 nm was monitored. At this time, the reaction solutions showing increase in the absorbance were fixed and applied to a carbon-coated grids, and dried. Grids were then stained with 1% uranyl acetate for 5 minutes, washed with distilled water, and dried. And then, they were examined with electron microscope(Hitachi H-600, Japan) at an accelerated voltage of 75 kv.

tubulin [5] = experiment: tubulin polymerization monitored by turbidity (absorbance at 350 nm); details: 20 μM taxol; control 2 mM GTP
Experimental: All of the purification steps were carried out under 4° C., and TALP activity was determined by the conventional tubulin polymerization which was monitored by turbidity(see: Gaskin, F. et al., 1974, J. Mol. Biol., 89:737-758): Tubulin prepared according to the method of Hamel et al. or Asnes et al.(see: Hamel E. et al., 1981, Arch. Biochem. Biophys., 209:29-40; Asnes, C. F. and Wilson, L., 1979, Anal. Biochem., 98:64-73) was added to 0.1M MES(2-[N-morpholino]ethane sulfonic acid) buffer(0.1M MES containing 1 mM EGTA and 1 mM MgCl2, pH 6.8) to a final concentration of 1 mg/ml, and TALP containing solution was added to a final reaction volume of 250 μl. The reaction mixture was incubated at 37° C. for 30 minutes, and the change in absorbance at 350 nm was monitored with a Gilford Model 2600 spectrophotometer(Gilford, USA).
Effects of GTP, taxol and TALP on tubulin polymerization were examined in the same manner as described in Example 1.
When 0.5 μM of TALP was added to the reaction mixture, tubulin polymerization occurred twice or more as high as one without TALP(see: FIG. 4).

| Compound | microtubules depolymerized by Ca2+ (tubulin [1]; assembled by 2 mM GTP) | microtubules depolymerized at 4° C. (tubulin [2]; assembled by 2 mM GTP) | tubulins polymerized ([3]; 2 mM GTP) | morphology of the polymers by electron microscopy (tubulin [4]) | tubulin polymerization, times as high as the control (tubulin [5]) [times] | microtubules depolymerized by Ca2+ (tubulin [1]; assembled by 10 μM taxol) [%] | microtubules depolymerized at 4° C. (tubulin [2]; assembled by 10 μM taxol) [%] | tubulins polymerized ([3]; 10 μM taxol) |
| --- | --- | --- | --- | --- | --- | --- | --- | --- |
| Nc1nc2c(ncn2[C@@H]2O[C@H](COP(=O)(O)OP(=O)(O)OP(=O)(O)O)[C@@H](O)[C@H]2O)c(=O)[nH]1 [GTP] | most | most | most of tubulins were not polymerized | typical microtubules were assembled | – | – | – | – |
| CC(=O)O[C@H]1C(=O)[C@@]2(C)[C@H]([C@H](OC(=O)c3ccccc3)[C@]3(O)C[C@H](OC(=O)[C@H](O)[C@@H](NC(=O)c4ccccc4)c4ccccc4)C(C)=C1C3(C)C)[C@]1(OC(C)=O)CO[C@@H]1C[C@@H]2O [taxol] | – | – | – | typical microtubules were assembled | 2.5 | 30 | 25 | about 20% |
